In the assay the test system is Staphylococcus aureus. Briefly: Antibacterial activity against Staphylococcus aureus ATCC 6538P after 18 hrs by broth microdilution method. Type of assay: functional. For orientation: Dilution methods test growth across graded concentrations, often in twofold steps.

Converted amounts (≈) assume the structure as drawn.

Usually MIC stands for the least concentration at which growth counts as inhibited. Lower therefore signals greater potency.

Regarding `CO[C@@H]1[C@H](O)[C@@H](C)O[C@@H](OC[C@H]2[C@@H]3O[C@@H]3/C=C/C(=O)[C@H](C)CC[C@H](O[C@@H]3O[C@H](C)C[C@H](O)[C@H]3O)[C@@H](C)/C=C/C(=O)O[C@@H]2C)[C@@H]1OC` [NEUTRAMYCIN E], the minimal inhibitory concentration (MIC) stood at 32 µg/mL (≈ 48.7 µM).

Source of the values: ChEMBL document CHEMBL1146587, “Purification, structure determination, and antimicrobial activity of neutramycins B-G” (2003).
